Consider two compounds from US9447060B2, “Small molecule modulators of pRb inactivation” (The Wistar Institute of Anatomy and Biology, priority 2011, dated 2016).

Assay [1] concerns the target T1, GST-pRbABC/E2F complex disrupted by 6×His-Ad5E1ACR1-3 (Homo sapiens, UniProt P06400).
T1 construct: made in house; host or cells: pRb: Sf9; E2F1 and E1A: E. coli BL21(DE3)
T1 sequence (P06400 376-928): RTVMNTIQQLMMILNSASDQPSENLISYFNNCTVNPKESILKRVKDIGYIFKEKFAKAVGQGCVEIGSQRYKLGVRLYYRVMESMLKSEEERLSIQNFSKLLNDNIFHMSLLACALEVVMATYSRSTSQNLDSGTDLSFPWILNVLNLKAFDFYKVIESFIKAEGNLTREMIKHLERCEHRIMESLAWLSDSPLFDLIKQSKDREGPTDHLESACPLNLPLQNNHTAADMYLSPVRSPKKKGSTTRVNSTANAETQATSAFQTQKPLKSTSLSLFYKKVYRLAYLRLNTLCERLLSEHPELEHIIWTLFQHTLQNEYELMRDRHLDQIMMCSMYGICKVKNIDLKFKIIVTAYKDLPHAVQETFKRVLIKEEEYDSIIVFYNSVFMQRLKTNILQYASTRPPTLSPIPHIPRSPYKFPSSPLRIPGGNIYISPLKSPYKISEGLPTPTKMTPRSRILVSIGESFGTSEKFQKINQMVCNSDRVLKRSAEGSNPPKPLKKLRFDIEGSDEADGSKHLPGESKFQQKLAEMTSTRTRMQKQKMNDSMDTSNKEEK
T1 sequence (Q01094 243-437 partner limits assumed): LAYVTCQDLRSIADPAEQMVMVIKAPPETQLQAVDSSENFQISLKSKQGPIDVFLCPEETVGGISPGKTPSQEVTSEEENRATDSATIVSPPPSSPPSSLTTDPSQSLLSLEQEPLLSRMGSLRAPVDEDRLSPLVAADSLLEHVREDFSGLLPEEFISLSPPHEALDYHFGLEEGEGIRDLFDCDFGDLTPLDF
Briefly: ELISA: inhibition of adenovirus E1A-mediated disruption of pRb/E2F complexes. The following applies: E2F remaining bound to pRb; 100 nM E1A. The format is binding. On the procedure: Since HPV-E7 mediates high affinity pRb binding through the association of its L×C×E motif in CR2 to the B domain of pRb, the ability of the thiadiazolidinedione compounds to inhibit the ability of other L×C×E containing viral oncoproteins from disrupting E2F/pRb complexes was tested. The other L×C×E containing viral oncoproteins tested included HPV-E7 from a low risk HPV form (type 1A) and Adenovirus E1A proteins.
A similar ELISA assay was used to assess the ability of the compounds to inhibit the ability of HPV16-E7-mediated disruption of E2F/pRb complexes. For these studies, 6×His-HPV1AE7CR2-3 and 6×His-Ad5E1ACR1-3, containing the L×C×E motif, were employed. The assay described above was modified in such a way that GST-pRbABC alone was added to HPV-E7CR2-3+ compound, HPV-E7CR2-3+DMSO, Ad5-E1ACR1-3+ compound, or Ad5-E1ACR1-3 DMSO. Mouse monoclonal anti-His antibody (Fisher) diluted 1:10,000 was used to detect how much His-E7CR2-3 remained bound to GST-pRbABC on the plate. Mouse monoclonal Ad5-E1A antibody (Abeam) diluted 1:10,000 was used to detect how much E1ACR1-3 remained bound to GST-pRbABC on the plate. All other steps remained unchanged.
On the technique in general: ELISA stands for enzyme-linked immunosorbent assay.

Another assay addresses T2, pRbAB (Homo sapiens, UniProt P06400, DEL590-635).
T2 construct: untagged pRbAB (372-787 with the linker from 590-635 removed); made in house
T2 sequence (P06400 with tags, fused parts or gaps DEL590-635): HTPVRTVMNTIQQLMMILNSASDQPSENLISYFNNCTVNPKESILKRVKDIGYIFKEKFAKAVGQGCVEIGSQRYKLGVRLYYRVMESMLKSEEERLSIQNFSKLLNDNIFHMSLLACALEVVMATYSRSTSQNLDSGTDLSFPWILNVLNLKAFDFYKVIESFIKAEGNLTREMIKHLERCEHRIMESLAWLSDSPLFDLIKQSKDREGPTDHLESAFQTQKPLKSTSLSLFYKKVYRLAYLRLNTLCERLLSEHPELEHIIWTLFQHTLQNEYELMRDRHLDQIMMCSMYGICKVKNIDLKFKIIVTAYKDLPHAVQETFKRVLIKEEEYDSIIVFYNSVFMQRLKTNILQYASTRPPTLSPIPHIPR
Nature of the assay: Isothermal titration calorimetry binding to pRbAB. The following applies: for Kd: ITC, pRbAB, 22° C. On the procedure:
For use in isothermal titration calorimetry studies, untagged pRbAB (372-787 with the linker from 590-635 removed) was prepared as described in Xiao et al., PNAS USA, 100:2363-2368 (2003).
This example illustrates the ability of the thiadiazolin-3,5-dione compounds to bind directly to a truncated pRb protein construct containing the A and B domains of the pRb pocket (pRbAB) using isothermal titration calorimetry (ITC).
Binding of compounds 1-9 to pRbAB were measured by ITC using a MicroCal™ VP-ITC isothermal titration calorimeter (MicroCal, Inc). Proteins were extensively dialyzed against a buffer containing Hepes (20 mM), pH=7.5, NaCl (150 mM) and Tris carboxy ethyl phosphine (0.1 mM) prior to analysis. Eight to twelve μL injections of 750-1500 μM compound were titrated into a pRb solution (50-150 μM) pre-equilibrated to 22° C. After subtraction of dilution heats, calorimetric data were analyzed with the MicroCal™ Origin® V5.0 (MicroCal Software, Northampton, Mass.).
(In general: In ITC the heat of successive injections is recorded.)

As for `Cc1ccccc1-n1sc(=O)n(C)c1=O` [Compound 3], half-maximal inhibition in assay [1] (IC50) was put at 240 nM. Also, the “reversibility of binding to pRb” value at pRbAB (ITC repeated after overnight dialysis of pRb/compound complex) is reported as “reversible”. In addition, the Kd (usually the constant that tells how readily two partners part at equilibrium) at pRbAB was determined as 106 ± 34 nM.
Turning to `Cc1cc(Cl)ccc1-n1sc(=O)n(C(C)C)c1=O` [Compound 4], the IC50 (in general, the concentration that gives 50% inhibition) in assay [1] worked out at 1300 ± 2200 nM. Also, the Kd at pRbAB worked out at 187 ± 22 nM.
